# Reference: US20120040956A1, “INHIBITORS OF HIF-1 PROTEIN ACCUMULATION” (INTERMED DISCOVERY GMBH, priority 2008, published 2012)
# Key:
# [1] = test system: cell-free protein translation (BMV mRNA, ribosomes); assay: Cell-free protein translation of Brome mosaic virus (BMV) mRNA with ribosomes; type: biochemical; conditions: relevant (nM) concentrations, SDS-PAGE
# Experimental: The effect of IMD-019064 on cell-free protein translation in vitro was investigated (see also assay principle in FIG. 8). Brome mosaic virus (BMV) mRNA encoding for 4 different viral proteins was incubated with ribosomes in the presence and absence of IMD-019064 (FIG. 9a), IMD-026259, IMD-026260 (FIG. 9b), or cycloheximide (Chx, 10 μM) (positive control) and the formed proteins analyzed by SDS-PAGE.
# Panels show representative SDS-PAGE protein gels. Vehicle-containing translation reactions (Veh) represent 100% translation efficacy, while Cycloheximide (Chx; 10 μg/ml) a known inhibitor of protein translation that was used as a positive control does show significant protein reduction.
# [2] = test system: human vasculature (CD34 positive vessels) from transplanted HUVECs; assay: Spheroid-based in vivo angiogenesis assay in SCID mice; conditions: 0.3 mg/ml p.o. every 3rd day, pvalue=0.0001
# Excerpt: Human endothelial cells (ECs; HUVECs) are applied subcutaneously in (n=10) SCID mice embedded in extracellular matrix components in the presence of smooth muscle cells (SMCs) and fibroblasts (NHDFs). The transplanted human ECs (EC spheroids in combination with ECs in suspension) form a complex and perfused three dimensional network of capillaries of human origin that is anastomosed (connected with) with the mouse vasculature and host (mouse) pericyte-covered. The quality of the newly formed vasculature is monitored by micro vessel density counting. Aim of the study is to investigate the anti-angiogenic potential of the test items in the spheroid-based in vivo angiogenesis assay. […]
# In the standard assay (with VEGF-A and FGF-2 stimulation and only ECs) the first perfused vessels are usually detected at day 4 to day 6. […]
# For histological examination of the human vasculature, paraffin sections (thickness=8-10 μm) were prepared from all plugs. Blood vessel formation was detected by staining the sections for human CD34 (NCL-END, Menarini, Berlin, Germany). Three sections per plug were analysed and three images were taken from each section at a magnification of 200× using the Eclipse TE2000-U microscope (Nikon, Kanagawa, Japan). The area analyzed per section (three images) was 0.44 mm^2. […]
smiles,measurement,setting,value
"CNCCOc1ccc2c(c1)OC1(c3ccc(Cl)cc3)C(c3ccccc3)CC(O)C21O (centres unmarked) [IMD-026260, (1,3a,8b)-3a-(4-chlorophenyl)-6-(2-(methylamino)ethoxy)-3-phenyl-2,3,3a,8b-tetrahydro-1H-benzo[d]cyclopenta[b]furan-1,8b-diol]",effect on in vitro protein translation,[1],No significant effect
same,reduction of human vessel number compared to a vehicle control,[2],42%
